Values of other authors, collected in publication PMC8674003 (CPT: Pharmacometrics & Systems Pharmacology, 2021).
Positions of bridges follow the written chain, without caps; N, C: chain ends. Non-standard residues stand in square brackets, D forms with d. Residues, ends and D or L forms follow the SMILES beside them. *: point of attachment. X1 = CC[C@H](C)CCCCC(=O)*; Dab = NCC[C@H](N)C(=O)O

Assays:
[1] = components administered individually to Sprague-Dawley rats
[2] = IV
[3] = M4 (Wang et al.), 2 CMT, Phoenix NLME (7.0), 46 patients

Row | Plasma protein binding, B1 compared with B2 [1] | Q, intercompartmental clearance [2, 3] | V1, typical volume of central compartment [2, 3] | V2, typical volume of peripheral compartment [2, 3] | V, volume of distribution ([2]; M7 (Yu et al.), 1 CMT, NONMEM (7.4), 32 patients) | Structure (SMILES)
1 | higher compared with B2 |  |  |  |  | CC[C@H](C)CCCCC(=O)N[C@@H](CCN)C(=O)N[C@H](C(=O)N[C@@H](CCN)C(=O)N[C@H]1CCNC(=O)[C@H]([C@@H](C)O)NC(=O)[C@H](CCN)NC(=O)[C@H](CCN)NC(=O)[C@H](CC(C)C)NC(=O)[C@@H](Cc2ccccc2)NC(=O)[C@H](CCN)NC1=O)[C@@H](C)O [polymyxin B1] (X1-[Dab]T[Dab][Dab][Dab][dF]L[Dab][Dab]T; lactam 4-C)
2 |  | 13.52 L/h | 6.22 L | 11.92 L | 20.5 L | CC[C@H](C)CCCCC(=O)N[C@@H](CCN)C(=O)N[C@H](C(=O)N[C@@H](CCN)C(=O)N[C@H]1CCNC(=O)[C@H]([C@@H](C)O)NC(=O)[C@H](CCN)NC(=O)[C@H](CCN)NC(=O)[C@H](CC(C)C)NC(=O)[C@@H](Cc2ccccc2)NC(=O)[C@H](CCN)NC1=O)[C@@H](C)O [polymyxin B, Polymyxin B] (X1-[Dab]T[Dab][Dab][Dab][dF]L[Dab][Dab]T; lactam 4-C)
